Test [1] addresses human Nav1.7 (Homo sapiens (Human), UniProt Q15858). The experiment in a line: FLIPR or FLIPR TETRA sodium dye assay with KCl and test article pre-incubation. Type of test: cell-based.
Test [2] deals with hNav1.7 (Homo sapiens (Human), UniProt Q15858). Kind of test: Electrophysiology (EP) assay, whole-cell patch clamp. Type of test: cell-based. The following applies: hNav1.7 HEK-293 cells; for Kd: Kf (method describes resting block dissociation constant Kr), read-out: EP Nav 1.7 Kf (μM) ± SEM; for Ki: affinity for inactivated state, read-out: EP Nav 1.7 Ki (μM) ± SEM. The protocol: Cells: The hNav1.7 expressing HEK-293 cells were plated on 35 mm culture dishes pre-coated with poly-D-lysine in standard DMEM culture media (Mediatech, Inc., Herndon, Va.) and incubated in a 5% CO2 incubator at 37° C. Cultured cells were used approximately 12-48 hours after plating.
Sequence of hNav1.7 (Q15858 other isoform, or with tags, fused parts or gaps): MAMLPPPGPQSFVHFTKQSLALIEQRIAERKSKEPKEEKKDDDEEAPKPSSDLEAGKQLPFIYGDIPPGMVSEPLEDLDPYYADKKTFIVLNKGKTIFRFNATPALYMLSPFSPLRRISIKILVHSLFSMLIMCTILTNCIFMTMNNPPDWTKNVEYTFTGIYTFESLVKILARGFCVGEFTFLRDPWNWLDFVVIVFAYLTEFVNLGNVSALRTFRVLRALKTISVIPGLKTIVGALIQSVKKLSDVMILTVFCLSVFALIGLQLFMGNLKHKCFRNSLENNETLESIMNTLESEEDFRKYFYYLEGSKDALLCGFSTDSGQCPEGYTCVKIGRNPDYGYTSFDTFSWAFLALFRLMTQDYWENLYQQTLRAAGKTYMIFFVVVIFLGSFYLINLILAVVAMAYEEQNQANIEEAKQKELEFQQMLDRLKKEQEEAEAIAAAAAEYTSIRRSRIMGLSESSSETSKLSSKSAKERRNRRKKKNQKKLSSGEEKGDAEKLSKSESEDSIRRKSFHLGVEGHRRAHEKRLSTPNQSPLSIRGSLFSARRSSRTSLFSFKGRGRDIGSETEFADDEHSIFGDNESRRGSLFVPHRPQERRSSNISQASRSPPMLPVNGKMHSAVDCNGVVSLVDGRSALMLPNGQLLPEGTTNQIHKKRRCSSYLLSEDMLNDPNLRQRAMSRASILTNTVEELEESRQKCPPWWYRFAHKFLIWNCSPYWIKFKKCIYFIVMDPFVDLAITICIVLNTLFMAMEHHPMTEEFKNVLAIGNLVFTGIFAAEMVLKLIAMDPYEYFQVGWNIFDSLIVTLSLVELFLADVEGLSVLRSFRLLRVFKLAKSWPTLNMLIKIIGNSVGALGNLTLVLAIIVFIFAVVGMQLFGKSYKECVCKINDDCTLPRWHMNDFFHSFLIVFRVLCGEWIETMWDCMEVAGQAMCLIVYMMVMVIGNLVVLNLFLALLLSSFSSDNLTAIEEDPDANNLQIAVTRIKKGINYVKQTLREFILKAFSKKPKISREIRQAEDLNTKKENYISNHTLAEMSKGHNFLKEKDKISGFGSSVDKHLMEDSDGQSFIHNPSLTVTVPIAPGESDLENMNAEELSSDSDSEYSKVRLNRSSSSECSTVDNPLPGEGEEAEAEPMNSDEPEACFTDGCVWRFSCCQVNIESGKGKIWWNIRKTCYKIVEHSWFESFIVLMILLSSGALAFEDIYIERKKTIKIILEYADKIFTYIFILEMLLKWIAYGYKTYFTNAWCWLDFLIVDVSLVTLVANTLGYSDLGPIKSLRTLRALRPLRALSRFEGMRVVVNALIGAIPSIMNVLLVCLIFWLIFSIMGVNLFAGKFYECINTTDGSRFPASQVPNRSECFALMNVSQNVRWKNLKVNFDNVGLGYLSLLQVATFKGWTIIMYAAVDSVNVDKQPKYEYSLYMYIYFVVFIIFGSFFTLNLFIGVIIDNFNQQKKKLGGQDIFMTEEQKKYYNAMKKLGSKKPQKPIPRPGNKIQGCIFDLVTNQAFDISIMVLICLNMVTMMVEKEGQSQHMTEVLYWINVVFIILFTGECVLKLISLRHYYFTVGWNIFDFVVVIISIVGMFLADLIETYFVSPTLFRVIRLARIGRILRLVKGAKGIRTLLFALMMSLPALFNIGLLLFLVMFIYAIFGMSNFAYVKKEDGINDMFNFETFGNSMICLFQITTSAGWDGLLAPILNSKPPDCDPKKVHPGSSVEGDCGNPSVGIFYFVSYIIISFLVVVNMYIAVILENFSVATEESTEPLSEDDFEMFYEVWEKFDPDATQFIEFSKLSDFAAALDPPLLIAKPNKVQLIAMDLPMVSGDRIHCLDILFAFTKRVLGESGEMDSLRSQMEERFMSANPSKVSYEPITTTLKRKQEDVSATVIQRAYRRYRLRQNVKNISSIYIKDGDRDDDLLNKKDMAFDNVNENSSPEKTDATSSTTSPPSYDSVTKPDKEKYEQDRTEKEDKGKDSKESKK
Electrophysiology: On the day of experimentation, the 35 mm dish was placed on the stage of an inverted microscope equipped with a perfusion system that continuously perfuses the culture dish with fresh recording media. A gravity driven superfusion system was used to apply test solutions directly to the cell under evaluation. This system consists of an array of glass pipette glass connected to a motorized horizontal translator. The outlet of the shooter was positioned approximately 100 μm from the cell of interest.
Whole cell currents were recorded using the whole-cell patch clamp configuration using an Axopatch 200B amplifier (Axon Instruments, Foster City Calif.), 1322A A/D converter (Axon Instruments) and pClamp software (v. 8; Axon Instruments) and stored on a personal computer. Gigaseals were formed and the whole-cell configuration was established in voltage clamp mode, and membrane currents generated by hNav1.7 were recorded in gap-free mode. Borosilicate glass pipettes have resistance values between 1.5 and 2.0 MΩ when filled with pipette solution and series resistance (<5 MΩ) was compensated 75-80%. Signals were sampled at 50 kHz and low pass filtered at 3 kHz.
Voltage Protocols: After establishing the whole-cell configuration in voltage clamp mode, voltage protocols were run to establish the 1) test potential, 2) holding potential, and 3) the conditioning potential for each cell.
After establishing the whole-cell configuration in voltage clamp mode, a standard I-V protocol was run to determine the potential at which the maximal current (Imax) is elicited. This potential was the test potential (Vt). To determine a conditioning potential at which 100% of channels were in the inactivated state, a standard steady-state inactivation (SSIN) protocol was run using a series of fifteen 100 ms-long depolarizing prepulses, incrementing in 10 mV steps, immediately followed by a 5 ms testing pulse, Vt, to Vmax. This protocol also permitted determination of the holding potential at which all channels are in the resting state.
For compounds causing significant retardation of recovery from inactivation, an estimate of the affinity for the inactivated state of the channel (Ki) was generated using the following protocol. From the negative, no residual inactivation, holding potential, the cell was depolarized to the conditioning voltage for 2-5 seconds, returned to the negative holding potential for 10-20 ms to relieve fast inactivation and then depolarized to the test potential for ˜15 ms. This voltage protocol was repeated every 10-15 seconds, first to establish a baseline in the absence of the test compound, then in the presence of the test compound.
After a stable baseline was established, the test compound was applied and block of the current elicited by the test pulse assessed. In some cases, multiple cumulative concentrations were applied to identify a concentration that blocked between 40-60% of this current. Washout of the compound was attempted by superfusing with control solution once steady-state block was observed. An estimate of the Ki was calculated as follows: Ki=[drug]*{FR/(1−FR)}, Eq. 1 where [drug] is the concentration of a drug, and FR=I(after drug)/l(control), Eq. 2 where I is the peak current amplitude. If multiple concentrations were used, Ki was determined from the fit of a logistic equation to FRs plotted against corresponding drug concentrations.
In the alternative, the voltage clamp protocol to examine hNav1.7 currents was as follows. […]
On the technique in general: Patch clamp records ionic current or voltage across a cell membrane.

The mark [3] stands for this setting: recombinant HEK293 cells expressing human Nav1.7, CoroNa Green sodium dye, veratridine + scorpion venom, read-out: FLIPR Nav 1.7 IC50 (μM) ± SEM.
Setting [4] is: read-out: FLIPR Nav 1.7 IC50 (μM) ± SEM.

Molecules are shown by their SMILES. Like-named read-outs stand apart in the source and are kept apart here.

Sequence of human Nav1.7 (Q15858 other isoform, or with tags, fused parts or gaps): as above

What is called IC50 is the concentration needed to halve the response being measured. Turning to `NC(=O)[C@@H](O)[C@H](O)c1cccc(-c2ccc(Oc3ccc(C(F)(F)F)cc3)cc2)n1`, in test [1] (setting [3]), the IC50 was determined as 0.13 ± 0.025 µM. As to `NC(=O)[C@H](O)[C@@H](O)c1cccc(-c2ccc(Oc3ccc(C(F)(F)F)cc3)cc2)n1`, the IC50 in test [1] (setting [3]) stood at 0.383 ± 0.072 µM.

Regarding `NC(=O)[C@@H](O)[C@H](O)c1cccc(-c2ccc(Oc3ccc(F)cc3)cc2)n1`, the IC50 in test [1] (setting [4]) came to 1.41 ± 0.281 µM. For the molecule `NC(=O)[C@H](O)[C@@H](O)c1cccc(-c2ccc(Oc3ccc(F)cc3)cc2)n1`, the IC50 in test [1] (setting [4]) worked out at 1.84 ± 0.309 µM. Take `NC(=O)[C@@H](O)[C@H](O)c1cccc(-c2ccc(Oc3ccc(C(F)(F)F)cn3)cc2)n1`: the IC50 in test [1] (setting [3]) was 0.711 ± 0.05 µM. Consider `NC(=O)[C@H](O)[C@@H](O)c1cccc(-c2ccc(Oc3ccc(C(F)(F)F)cn3)cc2)n1`, for which the IC50 in test [1] (setting [3]) was determined as 1.69 ± 0.019 µM.

In the case of `NC(=O)[C@@H](O)[C@H](O)c1cccc(-c2ccc(Oc3ccc(Cl)cn3)cc2)n1`, in test [1] (setting [4]), the IC50 was determined as 1.19 ± 0.074 µM. With `NC(=O)[C@H](O)[C@@H](O)c1cccc(-c2ccc(Oc3ccc(Cl)cn3)cc2)n1`, the IC50 in test [1] (setting [4]) was 1.44 ± 0.078 µM. `N#Cc1ccc(Oc2ccc(-c3cccc([C@@H](O)[C@H](O)C(N)=O)n3)cc2)cc1C(F)(F)F`: the IC50 in test [1] (setting [3]) came to 0.461 ± 0.045 µM. Consider `N#Cc1ccc(Oc2ccc(-c3cccc([C@H](O)[C@@H](O)C(N)=O)n3)cc2)cc1C(F)(F)F`, for which the IC50 in test [1] (setting [3]) was found to be 0.489 ± 0.04 µM. For `NC(=O)[C@@H](O)[C@H](O)c1cccc(-c2ccc(Oc3ccc(Cl)nc3)cc2)n1`, the IC50 in test [1] (setting [3]) is 0.376 ± 0.057 µM. Turning to `NC(=O)[C@H](O)[C@@H](O)c1cccc(-c2ccc(Oc3ccc(Cl)nc3)cc2)n1`, in test [1] (setting [3]), the half-inhibitory concentration (IC50) turned out to be 0.804 ± 0.044 µM. `N#Cc1ccc(Oc2ccc(-c3cccc([C@@H](O)[C@H](O)C(N)=O)n3)cc2)cc1`: the concentration for half-maximal inhibition (IC50) in test [1] (setting [3]) turned out to be 0.262 ± 0.017 µM.

With `N#Cc1ccc(Oc2ccc(-c3cccc([C@H](O)[C@@H](O)C(N)=O)n3)cc2)cc1`, the IC50 in test [1] (setting [3]) was 0.69 ± 0.071 µM.

`NC(=O)[C@H](O)[C@@H](O)c1cn(-c2ccc(Oc3ccc(C(F)(F)F)cn3)cc2)c2ccccc12` [Compound 5, (2R,3S)-2,3-Dihydroxy-3-(1-(4-((5-(trifluoromethyl)pyridin-2-yl)oxy)phenyl)-1H-indol-3-yl)propanamide]: the concentration for half-maximal inhibition (IC50) in test [1] (setting [4]) came out at 0.314 ± 0.038 µM.

As for `CCOC(=O)[C@@H](O)[C@H](O)c1cn(-c2ccc(Oc3ccc(C(F)(F)F)cn3)cc2)c2ccccc12` [Compound 6, (2S,3R)-Ethyl 2,3-dihydroxy-3-(1-(4-((5-(trifluoromethyl)pyridin-2-yl)oxy)phenyl)-1H-indol-3-yl)propanoate], in test [1] (setting [3]), the IC50 stood at 0.152 ± 0.031 µM. The same measure, in the same setting: in the case of `CNC(=O)[C@@H](O)[C@H](O)c1cn(-c2ccc(Oc3ccc(C(F)(F)F)cn3)cc2)c2ccccc12` [Compound 7, (2S,3R)-2,3-Dihydroxy-N-methyl-3-(1-(4-((5-(trifluoromethyl)pyridin-2-yl)oxy)phenyl)-1H-indol-3-yl)propanamide] it was 0.282 ± 0.002 µM. Consider `NC(=O)[C@@H](O)[C@H](O)c1cn(-c2ccc(Oc3ccc(C(F)(F)F)cn3)cc2)c2ccccc12` [Compound 8, (2S,3R)-2,3-Dihydroxy-3-(1-(4-((5-(trifluoromethyl)pyridin-2-yl)oxy)phenyl)-1H-indol-3-yl)propanamide], for which the IC50 in test [1] (setting [4]) was found to be 0.193 ± 0.049 µM.

In the case of `CCOC(=O)[C@@H](O)[C@H](O)c1cccc(-c2ccc(Oc3ccc(C(F)(F)F)c(C#N)c3)cc2)n1` [Compound 14, (2S,3R)-Ethyl 3-(6-(4-(3-cyano-4-(trifluoromethyl)phenoxy)phenyl)pyridin-2-yl)-2,3-dihydroxypropanoate], in test [1], half-maximal inhibition (IC50) required 0.246 ± 0.031 µM. Consider `N#Cc1cc(Oc2ccc(-c3cccc([C@@H](O)[C@H](O)C(N)=O)n3)cc2)ccc1C(F)(F)F` [Compound 15, (2S,3R)-3-(6-(4-(3-Cyano-4-(trifluoromethyl)phenoxy)phenyl)pyridin-2-yl)-2,3-dihydroxypropanamide], for which the IC50 in test [1] (setting [4]) came out at 0.304 ± 0.022 µM. Further, in test [2], the Kd is 32.9 ± 6.89 µM and the Ki came out at 0.917 ± 0.05 µM. As for `N#Cc1cc(Oc2ccc(-c3cccc([C@H](O)[C@@H](O)C(N)=O)n3)cc2)ccc1C(F)(F)F` [Compound 19, (2R,3S)-3-(6-(4-(3-Cyano-4-(trifluoromethyl)phenoxy)phenyl)pyridin-2-yl)-2,3-dihydroxypropanamide], in test [1] (setting [4]), the concentration for half-maximal inhibition (IC50) amounted to 0.244 ± 0.05 µM. Besides, in test [2], the Kd stood at 17.1 ± 4.24 µM and the Ki amounted to 0.347 ± 0.07 µM.

With `NC(=O)[C@H](O)[C@@H](O)c1ccnc(-c2ccc(Oc3ccc(F)cc3)cc2)n1` [Compound 26, (2R,3S)-3-(2-(4-(4-fluorophenoxy)phenyl)pyrimidin-4-yl)-2,3-dihydroxypropanamide], the IC50 in test [1] (setting [3]) is 0.625 ± 0.058 µM. Further, in test [2], the Kd worked out at 97.9 ± 23.1 µM and the Ki amounted to 2.26 ± 0.61 µM.

Source of the values: patent publication US9181185B2, “Heteroaryl compounds as sodium channel blockers” (Purdue Pharma L.P., priority 2011, dated 2015).
